The source of these data is patent US9624224B2, “Inhibitors of Bruton's tyrosine kinase” (Pharmacyclics LLC, priority 2013, dated 2017).

A word on the IC50: it is the concentration that gives 50% inhibition.

Format in all cases: biochemical
One assay concerns the target T1, BTK (Homo sapiens, UniProt Q06187).
T1 construct: purified from insect cells as a full-length construct containing a N-terminal 6×-His tag; His6 (N); made in house; host or cells: insect cells (baculovirus, Sf21)
Briefly: Btk in vitro inhibitory activity (TR-FRET, mobility shift or radiometric filter binding kinase assay). Particulars: determined using one of the methods outlined in Example 47a, 47b, and 47c. How it is done:
(§1) Btk kinase activity is determined using a time-resolved fluorescence resonance energy transfer (TR-FRET) methodology. Measurements are performed in a reaction volume of 50 μL using 96-well assay plates. […] The reaction is quenched by the addition of 1.2 equivalents of EDTA (relative to divalent cation) in 25 μL of 1× Lance buffer (Perkin-Elmer). Streptavidin-APC (Perkin-Elmer) and Eu-labeled p-Tyr100 antibody (Perkin-Elmer) in 1× Lance buffer are added in a 25 μL volume to give final concentrations of 100 nM and 2.5 nM, respectively, and the mixture is allowed to incubate for one hour. The TR-FRET signal is measured on a multimode plate reader with an excitation wavelength (λEx) of 330 nm and detection wavelengths (λEm) of 615 and 665 nm. Activity is determined by the ratio of the fluorescence at 665 nm to that at 615 nm. For each compound, enzyme activity is measured at various concentrations of compound. Negative control reactions are performed in the absence of inhibitor in replicates of six, and two no-enzyme controls are used to determine baseline fluorescence levels. Inhibition constants, Ki(app), ware obtained using the program BatchKi (Kuzmic et al. (2000), Anal. Biochem. 286:45-50). IC50s are obtained according to the equation: IC50={Ki(app)/(1+[ATP]/Km^ATP)}+[E]total/2;
(§2) For all kinases, [ATP]=Km^ATP, [Btk]total=0.5 nM and [Lck]total=6 nM.
Kinase activity is measured in vitro using electrophoretic mobility shift assay. The kinase reactions are assembled in a total volume of 25 μL in 384 well plates. […] The reaction is incubated for one hour and is quenched by the addition of 45 μL of termination buffer (100 mM HEPES, pH7.5, 0.01% Triton X-100, 30 mM EDTA). The terminated reactions are analyzed using 12 channel LabChip® 3000 microfluidic detection instrument (Caliper Life Sciences). The enzymatic phosphorylation of the peptide results in a change in net charge, enabling electrophoretic separation of product from substrate peptide. As substrate and product peptides are separated, two peaks of fluorescence are observed. Change in the relative fluorescence intensity of the substrate and product peaks is the parameter measured, reflecting enzyme activity. In the presence of an inhibitor, the ratio between product and substrate is altered: the signal of the product decreases, while the signal of the substrate increases.
Activity in each sample is determined as the product to sum ratio (PSR): P/(S+P), where P is the peak height of the product peptide and S is the peak height of the substrate peptide. For each compound, enzyme activity is measured at various concentrations (12 concentrations of compound spaced by 3× dilution intervals). Negative control samples (0%-inhibition in the absence of inhibitor) and positive control samples (100%-inhibition, in the presence of 20 mM EDTA) are assembled in replicates of four and are used to calculate %-inhibition values for each inhibitor at each concentration. Percent inhibition (Pinh) is determined using following equation: Pinh=(PSR0%−PSRinh)/(PSR0%−PSR100%)*100,
where PSRmh is the product sum ratio in the presence of inhibitor, PSR0% is the average product sum ration in the absence of inhibitor and PSR100% is the average product sum ratio in 100%-inhibition control samples;
The IC50 values of inhibitors are determined by 4 parameter sigmoidal dose-response model fitting of the inhibition curves (Pinh versus inhibitor concentration) using XLfit 4 software.
Human Btk kinase (Genbank accession # NP_000052) was purified from insect cells as a full-length construct containing a N-terminal 6×-His tag. Btk kinase activity was determined using a radiometric filter binding assay. Measurements are performed in a low μL reaction volume 384-well assay plates. […]
(TR-FRET usually uses a lanthanide donor and a delayed reading to cut background.)

For another assay, the target named is EGFR (Homo sapiens, UniProt P00533). Briefly: EGFR kinase inhibition (in vitro kinase assay).
The target in a further assay is Lck (Homo sapiens, UniProt P06239). Put plainly: Lck kinase inhibition (in vitro kinase assay). Here is the method:
as §1, §2

Chain of Lck (P06239 whole entry, species assumed): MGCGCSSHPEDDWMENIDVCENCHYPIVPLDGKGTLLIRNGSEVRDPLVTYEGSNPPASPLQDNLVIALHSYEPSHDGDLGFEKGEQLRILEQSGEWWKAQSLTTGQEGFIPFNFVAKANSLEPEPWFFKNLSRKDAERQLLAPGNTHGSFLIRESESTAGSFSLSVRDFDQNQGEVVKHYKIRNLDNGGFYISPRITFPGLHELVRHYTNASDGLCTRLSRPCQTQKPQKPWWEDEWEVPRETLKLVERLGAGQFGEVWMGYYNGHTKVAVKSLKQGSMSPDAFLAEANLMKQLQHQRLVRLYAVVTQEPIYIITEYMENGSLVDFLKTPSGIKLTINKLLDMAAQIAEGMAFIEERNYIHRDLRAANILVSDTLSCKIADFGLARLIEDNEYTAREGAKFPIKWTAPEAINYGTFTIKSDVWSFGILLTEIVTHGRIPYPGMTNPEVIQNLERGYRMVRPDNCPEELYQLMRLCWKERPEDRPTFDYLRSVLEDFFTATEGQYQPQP
Chain of EGFR (P00533 25-1210, species assumed): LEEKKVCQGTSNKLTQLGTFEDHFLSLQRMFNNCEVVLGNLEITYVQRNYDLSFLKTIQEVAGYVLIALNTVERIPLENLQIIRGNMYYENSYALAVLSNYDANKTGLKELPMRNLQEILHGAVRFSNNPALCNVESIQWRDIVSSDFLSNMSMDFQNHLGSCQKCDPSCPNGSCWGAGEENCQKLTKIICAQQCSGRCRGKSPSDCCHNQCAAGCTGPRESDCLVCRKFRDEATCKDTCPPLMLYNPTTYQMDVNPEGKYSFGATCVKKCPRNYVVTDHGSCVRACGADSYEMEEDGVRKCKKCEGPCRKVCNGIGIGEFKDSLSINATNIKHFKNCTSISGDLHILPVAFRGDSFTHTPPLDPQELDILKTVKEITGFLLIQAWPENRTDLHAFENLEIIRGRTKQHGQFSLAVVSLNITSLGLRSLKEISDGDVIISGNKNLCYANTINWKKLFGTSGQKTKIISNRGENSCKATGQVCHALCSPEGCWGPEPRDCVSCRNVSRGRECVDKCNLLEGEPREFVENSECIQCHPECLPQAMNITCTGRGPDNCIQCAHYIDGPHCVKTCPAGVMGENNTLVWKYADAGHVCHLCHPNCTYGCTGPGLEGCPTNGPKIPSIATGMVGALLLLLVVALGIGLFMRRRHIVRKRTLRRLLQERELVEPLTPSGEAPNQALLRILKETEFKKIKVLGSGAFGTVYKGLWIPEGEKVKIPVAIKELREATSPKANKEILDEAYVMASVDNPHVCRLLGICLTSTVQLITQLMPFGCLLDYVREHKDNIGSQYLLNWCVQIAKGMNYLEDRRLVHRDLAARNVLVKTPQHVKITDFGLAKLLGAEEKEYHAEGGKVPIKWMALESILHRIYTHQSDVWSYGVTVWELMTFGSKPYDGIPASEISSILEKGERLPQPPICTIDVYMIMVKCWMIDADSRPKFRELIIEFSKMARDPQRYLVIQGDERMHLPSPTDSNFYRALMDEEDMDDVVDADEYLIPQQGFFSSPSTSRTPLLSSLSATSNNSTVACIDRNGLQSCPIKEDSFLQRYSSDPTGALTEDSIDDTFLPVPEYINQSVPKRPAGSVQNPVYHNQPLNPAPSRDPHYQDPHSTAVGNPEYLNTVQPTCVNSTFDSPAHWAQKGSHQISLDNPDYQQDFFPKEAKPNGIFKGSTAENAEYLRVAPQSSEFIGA
T1 sequence (Q06187 whole entry): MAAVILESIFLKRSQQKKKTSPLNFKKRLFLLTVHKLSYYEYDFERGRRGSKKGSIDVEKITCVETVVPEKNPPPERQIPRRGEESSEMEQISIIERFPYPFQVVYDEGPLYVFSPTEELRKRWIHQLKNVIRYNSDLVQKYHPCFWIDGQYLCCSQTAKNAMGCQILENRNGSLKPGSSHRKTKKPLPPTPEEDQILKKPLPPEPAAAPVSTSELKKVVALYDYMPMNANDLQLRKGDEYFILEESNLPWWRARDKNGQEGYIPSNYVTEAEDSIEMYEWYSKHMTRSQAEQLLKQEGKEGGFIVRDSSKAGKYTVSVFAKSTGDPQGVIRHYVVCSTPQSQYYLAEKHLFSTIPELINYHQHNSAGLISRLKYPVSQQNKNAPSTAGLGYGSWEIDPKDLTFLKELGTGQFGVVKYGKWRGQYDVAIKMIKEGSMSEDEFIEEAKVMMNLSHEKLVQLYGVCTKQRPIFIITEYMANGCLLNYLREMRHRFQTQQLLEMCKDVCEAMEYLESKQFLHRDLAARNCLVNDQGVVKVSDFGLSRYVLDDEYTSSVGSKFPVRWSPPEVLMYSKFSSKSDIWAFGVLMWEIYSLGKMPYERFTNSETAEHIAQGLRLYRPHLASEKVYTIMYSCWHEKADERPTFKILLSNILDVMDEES

On to `Cc1ccnc(NC(=O)c2ccc(-c3nn([C@@H]4CCN(C(=O)/C=C/CN(C)C5CC5)C4)c4ncnc(N)c34)cc2)c1` [Example 1, (R,E)-4-(4-amino-1-(1-(4-(cyclopropyl(methyl)amino)but-2-enoyl)pyrrolidin-3-yl)-1H-pyrazolo[3,4-d]pyrimidin-3-yl)-N-(4-methylpyridin-2-yl)benzamide], for which the concentration for half-maximal inhibition (IC50) on BTK is below 1 nM; against EGFR it was 1000 to 10000 nM; at Lck, 100 to 1000 nM.
The matching figures for `CN(C/C=C/C(=O)N1CC[C@@H](n2nc(-c3ccc(C(=O)Nc4cc(C(F)(F)F)ccn4)cc3)c3c(N)ncnc32)C1)C1CC1` [Example 2, (R,E)-4-(4-Amino-1-(1-(4-(cyclopropyl(methyl)amino)but-2-enoyl)pyrrolidin-3-yl)-1H-pyrazolo[3,4-d]pyrimidin-3-yl)-N-(4-(trifluoromethyl)pyridin-2-yl)benzamide]: below 1 nM, 100 to 1000 nM and 100 to 1000 nM.
The matching figures for `CCCc1ccnc(NC(=O)c2ccc(-c3nn([C@@H]4CCN(C(=O)/C=C/CN(C)C5CC5)C4)c4ncnc(N)c34)cc2)c1` [Example 3, (R,E)-4-(4-amino-1-(1-(4-(cyclopropyl(methyl)amino)but-2-enoyl)pyrrolidin-3-yl)-1H-pyrazolo[3,4-d]pyrimidin-3-yl)-N-(4-propylpyridin-2-yl)benzamide]: below 1 nM, 100 to 1000 nM and 100 to 1000 nM.
For `CCc1ccnc(NC(=O)c2ccc(-c3nn([C@@H]4CCN(C(=O)/C=C/CN(C)C5CC5)C4)c4ncnc(N)c34)cc2)c1` [Example 4, (R,E)-4-(4-amino-1-(1-(4-(cyclopropyl(methyl)amino)but-2-enoyl)pyrrolidin-3-yl)-1H-pyrazolo[3,4-d]pyrimidin-3-yl)-N-(4-ethylpyridin-2-yl)benzamide] the same measures were below 1 nM, 1000 to 10000 nM and 100 to 1000 nM.
Consider `COc1cc(-c2nn([C@@H]3CCN(C(=O)/C=C/CN(C)C4CC4)C3)c3ncnc(N)c23)ccc1C(=O)Nc1cc(C)ccn1` [Example 5, (R,E)-4-(4-amino-1-(1-(4-(cyclopropyl(methyl)amino)but-2-enoyl)pyrrolidin-3-yl)-1H-pyrazolo[3,4-d]pyrimidin-3-yl)-2-methoxy-N-(4-methylpyridin-2-yl)benzamide], for which the IC50 is below 100 nM on BTK, 1000 to 10000 nM against EGFR and 1000 to 10000 nM on Lck.
As to `Cc1cnc(NC(=O)c2ccc(-c3nn([C@@H]4CCN(C(=O)/C=C/CN(C)C5CC5)C4)c4ncnc(N)c34)cc2)s1` [Example 6, (R,E)-4-(4-amino-1-(1-(4-(cyclopropyl(methyl)amino)but-2-enoyl)pyrrolidin-3-yl)-1H-pyrazolo[3,4-d]pyrimidin-3-yl)-N-(5-methylthiazol-2-yl)benzamide], the IC50 at BTK was below 100 nM; against EGFR, 1000 to 10000 nM; at Lck, 100 to 1000 nM.
Take `CC(C)c1cnc(NC(=O)c2ccc(-c3nn([C@@H]4CCN(C(=O)/C=C/CN(C)C5CC5)C4)c4ncnc(N)c34)cc2)s1` [Example 8, (R,E)-4-(4-amino-1-(1-(4-(cyclopropyl(methyl)amino)but-2-enoyl)pyrrolidin-3-yl)-1H-pyrazolo[3,4-d]pyrimidin-3-yl)-N-(5-isopropylthiazol-2-yl)benzamide]: the IC50 was below 100 nM on BTK, 100 to 1000 nM against EGFR and below 100 nM against Lck.
Regarding `CCc1cnc(NC(=O)c2ccc(-c3nn([C@@H]4CCN(C(=O)/C=C/CN(C)C5CC5)C4)c4ncnc(N)c34)cc2)s1` [Example 9, (R,E)-4-(4-amino-1-(1-(4-(cyclopropyl(methyl)amino)but-2-enoyl)pyrrolidin-3-yl)-1H-pyrazolo[3,4-d]pyrimidin-3-yl)-N-(5-ethylthiazol-2-yl)benzamide], the IC50 is below 100 nM on BTK, 100 to 1000 nM on EGFR and below 100 nM against Lck.
For the molecule `CCCc1cnc(NC(=O)c2ccc(-c3nn([C@@H]4CCN(C(=O)/C=C/CN(C)C5CC5)C4)c4ncnc(N)c34)cc2)s1` [Example 10, (R,E)-4-(4-amino-1-(1-(4-(cyclopropyl(methyl)amino)but-2-enoyl)pyrrolidin-3-yl)-1H-pyrazolo[3,4-d]pyrimidin-3-yl)-N-(5-propylthiazol-2-yl)benzamide], the concentration for half-maximal inhibition (IC50) is below 1 nM on BTK, 100 to 1000 nM against EGFR and below 100 nM against Lck.
Regarding `CN(C/C=C/C(=O)N1CC[C@@H](n2nc(-c3ccc(C(=O)Nc4ncc(C(F)(F)F)s4)cc3)c3c(N)ncnc32)C1)C1CC1` [Example 11, (R,E)-4-(4-amino-1-(1-(4-(cyclopropyl(methyl)amino)but-2-enoyl)pyrrolidin-3-yl)-1H-pyrazolo[3,4-d]pyrimidin-3-yl)-N-(5-(trifluoromethyl)thiazol-2-yl)benzamide], the IC50 on BTK was below 100 nM; against EGFR, 100 to 1000 nM; on Lck, below 100 nM.
For the molecule `CN(C/C=C/C(=O)N1CC[C@@H](n2nc(-c3ccc(C(=O)Nc4ncco4)cc3)c3c(N)ncnc32)C1)C1CC1` [Example 14, (R,E)-4-(4-amino-1-(1-(4-(cyclopropyl(methyl)amino)but-2-enoyl)pyrrolidin-3-yl)-1H-pyrazolo[3,4-d]pyrimidin-3-yl)-N-(oxazol-2-yl)benzamide], the results for the half-inhibitory concentration (IC50) on BTK, against EGFR and against Lck were below 100 nM, above 10000 nM and above 10000 nM, respectively.
As for `CN(C/C=C/C(=O)N1CC[C@@H](n2nc(-c3ccc(C(=O)Nc4ccccn4)cc3)c3c(N)ncnc32)C1)C1CC1` [Example 15, (R,E)-4-(4-amino-1-(1-(4-(cyclopropyl(methyl)amino)but-2-enoyl)pyrrolidin-3-yl)-1H-pyrazolo[3,4-d]pyrimidin-3-yl)-N-(pyridin-2-yl)benzamide], the IC50 was below 100 nM at BTK, 100 to 1000 nM against EGFR and 1000 to 10000 nM against Lck.
For `CCCc1ccnc(NC(=O)c2ccc(-c3nn([C@@H]4CCCN(C(=O)/C=C/CN(C)C)C4)c4ncnc(N)c34)cc2)c1` [Example 43, (R,E)-4-(4-amino-1-(1-(4-(dimethylamino)but-2-enoyl)piperidin-3-yl)-1H-pyrazolo[3,4-d]pyrimidin-3-yl)-N-(4-propylpyridin-2-yl)benzamide], the IC50 on BTK was below 1 nM.
For the molecule `CC(C)c1ccnc(NC(=O)c2ccc(-c3nn([C@@H]4CCCN(C(=O)/C=C/CN(C)C)C4)c4ncnc(N)c34)cc2)c1` [Example 44, (R,E)-4-(4-amino-1-(1-(4-(dimethylamino)but-2-enoyl)piperidin-3-yl)-1H-pyrazolo[3,4-d]pyrimidin-3-yl)-N-(4-isopropylpyridin-2-yl)benzamide], the half-inhibitory concentration (IC50) at BTK was below 1 nM.
With `CN(C)C/C=C/C(=O)N1CCC[C@@H](n2nc(-c3ccc(C(=O)Nc4cc(C#N)ccn4)cc3)c3c(N)ncnc32)C1` [Example 45, (R,E)-4-(4-amino-1-(1-(4-(dimethylamino)but-2-enoyl)piperidin-3-yl)-1H-pyrazolo[3,4-d]pyrimidin-3-yl)-N-(4-cyanopyridin-2-yl)benzamide], the IC50 at BTK is below 1 nM.
In turn, `CN(C/C=C/C(=O)N1CC[C@@H](n2nc(-c3ccc(C(=O)Nc4ccccn4)cc3)c3c(N)ncnc32)C1)C1CC1` [Example 46, (R,E)-4-(4-amino-1-(1-(4-(cyclopropyl(methyl)amino)but-2-enoyl)pyrrolidin-3-yl)-1H-pyrazolo[3,4-d]pyrimidin-3-yl)-N-(pyridin-2-yl)benzamide] displayed a concentration for half-maximal inhibition (IC50) against Lck of 100 to 1000 nM.
